Experimental data published in PubChem BioAssay AID1259407 (Chemical Carcinogenesis Research Information System (CCRIS), 2018).
Activity calls are given as the source filed them. No rule for the calls is given here.

System: CCRIS mutagenicity, Ames/micronucleus/aberration tests
Test: CCRIS mutagenicity studies

## O=[N+]([O-])c1ccc(N=Nc2ccc(N(CCO)CCO)cc2)c([N+](=O)[O-])c1
Test System: AMES SALMONELLA TYPHIMURIUM, Strain/Indicator: TA98, Metabolic Activation: NONE, Method: STANDARD PLATE
  mutagenic call: active; positive
Test System: AMES SALMONELLA TYPHIMURIUM, Strain/Indicator: TA98, Metabolic Activation: RAT, LIVER, S-9, AROCLOR 1254, Method: STANDARD PLATE
  mutagenic call: active; positive
Test System: AMES SALMONELLA TYPHIMURIUM, Strain/Indicator: TA100, Metabolic Activation: NONE, Method: STANDARD PLATE
  mutagenic call: active; positive
Test System: AMES SALMONELLA TYPHIMURIUM, Strain/Indicator: TA100, Metabolic Activation: RAT, LIVER, S-9, AROCLOR 1254, Method: STANDARD PLATE
  mutagenic call: active; positive
Test System: AMES SALMONELLA TYPHIMURIUM, Strain/Indicator: TA1535, Metabolic Activation: NONE, Method: STANDARD PLATE
  mutagenic call: active; positive
Test System: AMES SALMONELLA TYPHIMURIUM, Strain/Indicator: TA1535, Metabolic Activation: RAT, LIVER, S-9, AROCLOR 1254, Method: STANDARD PLATE
  mutagenic call: active; positive
Test System: AMES SALMONELLA TYPHIMURIUM, Strain/Indicator: TA1537, Metabolic Activation: NONE, Method: STANDARD PLATE
  mutagenic call: active; positive
Test System: AMES SALMONELLA TYPHIMURIUM, Strain/Indicator: TA1537, Metabolic Activation: RAT, LIVER, S-9, AROCLOR 1254, Method: STANDARD PLATE
  mutagenic call: active; positive
Test System: AMES SALMONELLA TYPHIMURIUM, Strain/Indicator: TA1538, Metabolic Activation: NONE, Method: STANDARD PLATE
  mutagenic call: active; positive
Test System: AMES SALMONELLA TYPHIMURIUM, Strain/Indicator: TA1538, Metabolic Activation: RAT, LIVER, S-9, AROCLOR 1254, Method: STANDARD PLATE
  mutagenic call: active; positive
Test System: CHINESE HAMSTER V-79, Strain/Indicator: V-79 (HGPRT)/6-THIOGUANINE, Metabolic Activation: RAT, LIVER, S-9, AROCLOR 1254
  mutagenic call: active; positive
Test System: CHINESE HAMSTER V-79, Strain/Indicator: V-79/6-THIOGUANINE, Metabolic Activation: NONE
  mutagenic call: inactive; negative
Test System: UDS RAT HEPATOCYTES, Strain/Indicator: THY INCORP, Metabolic Activation: NONE, Method: AUTORADIOGRAPHY
  mutagenic call: inactive; negative
